# Key:
# Streptococcus pneumoniae [1] = assay: Antimicrobial activity against penicillin-resistant Streptococcus pneumoniae assessed as resistant isolate by broth microdilution method; type: functional
# Enterobacteriaceae [2] = assay: Antimicrobial activity against Ceftazidime non-susceptible Enterobacteriaceae by broth microdilution method; type: functional
# Enterobacteriaceae [3] = assay: Antimicrobial activity against Enterobacteriaceae assessed as intermediate isolate by broth microdilution method; type: functional
# Enterobacteriaceae [4] = assay: Antimicrobial activity against Enterobacteriaceae assessed as resistant isolate by broth microdilution method; type: functional
# Enterobacteriaceae [5] = assay: Antimicrobial activity against Ceftazidime non-susceptible Enterobacteriaceae assessed as susceptible isolate by broth microdilution method; type: functional
# Enterobacteriaceae [6] = assay: Antimicrobial activity against Ceftazidime non-susceptible Enterobacteriaceae assessed as resistant isolate by broth microdilution method; type: functional
# Escherichia coli [7] = assay: Antimicrobial activity against Escherichia coli by broth microdilution method; type: functional
# Escherichia coli [8] = assay: Antimicrobial activity against Non-ESBL Escherichia coli by broth microdilution method; type: functional
# Escherichia coli [9] = assay: Antimicrobial activity against ESBL producing Escherichia coli by broth microdilution method; type: functional
# Escherichia coli [10] = assay: Antimicrobial activity against Escherichia coli assessed as susceptible isolate by broth microdilution method; type: functional
# Escherichia coli [11] = assay: Antimicrobial activity against Non-ESBL Escherichia coli assessed as intermediate isolate by broth microdilution method; type: functional
# Escherichia coli [12] = assay: Antimicrobial activity against ESBL producing Escherichia coli assessed as intermediate isolate by broth microdilution method; type: functional
# Klebsiella pneumoniae [13] = assay: Antimicrobial activity against Non-ESBL Klebsiella pneumoniae by broth microdilution method; type: functional
# Klebsiella pneumoniae [14] = assay: Antimicrobial activity against Klebsiella pneumoniae assessed as susceptible isolate by broth microdilution method; type: functional
# Klebsiella pneumoniae [15] = assay: Antimicrobial activity against Non-ESBL Klebsiella pneumoniae assessed as susceptible isolate by broth microdilution method; type: functional
# Klebsiella pneumoniae [16] = assay: Antimicrobial activity against Non-ESBL Klebsiella pneumoniae assessed as intermediate isolate by broth microdilution method; type: functional
# Klebsiella pneumoniae [17] = assay: Antimicrobial activity against ESBL producing Klebsiella pneumoniae assessed as susceptible isolate by broth microdilution method; type: functional
# Proteus mirabilis [18] = assay: Antimicrobial activity against Proteus mirabilis by broth microdilution method; type: functional
# Proteus mirabilis [19] = assay: Antimicrobial activity against Proteus mirabilis assessed as intermediate isolate by broth microdilution method; type: functional
# Proteus mirabilis [20] = assay: Antimicrobial activity against Non-ESBL Proteus mirabilis assessed as intermediate isolate by broth microdilution method; type: functional
# Proteus mirabilis [21] = assay: Antimicrobial activity against ESBL producing Proteus mirabilis assessed as intermediate isolate by broth microdilution method; type: functional
# Enterobacter cloacae [22] = assay: Antimicrobial activity against Enterobacter cloacae by broth microdilution method; type: functional
# Enterobacter cloacae [23] = assay: Antimicrobial activity against Enterobacter cloacae assessed as intermediate isolate by broth microdilution method; type: functional
# Enterobacter cloacae [24] = assay: Antimicrobial activity against Enterobacter cloacae with nonderepressed AmpC beta-lactamsae assessed as susceptible isolate by broth microdilution method; type: functional
# Enterobacter cloacae [25] = assay: Antimicrobial activity against Enterobacter cloacae with derepressed AmpC beta-lactamsae assessed as intermediate isolate by broth microdilution method; type: functional
# Citrobacter [26] = assay: Antimicrobial activity against Citrobacter with nonderepressed AmpC beta-lactamsae by broth microdilution method; type: functional
# Citrobacter [27] = assay: Antimicrobial activity against Citrobacter with nonderepressed AmpC beta-lactamsae assessed as susceptible isolate by broth microdilution method; type: functional
# Citrobacter [28] = assay: Antimicrobial activity against Citrobacter with nonderepressed AmpC beta-lactamsae assessed as intermediate isolate by broth microdilution method; type: functional
# Serratia marcescens [29] = assay: Antimicrobial activity against Serratia marcescens by broth microdilution method; type: functional
# Serratia marcescens [30] = assay: Antimicrobial activity against Ceftazidime non-susceptible Serratia marcescens by broth microdilution method; type: functional
# Serratia marcescens [31] = assay: Antimicrobial activity against Serratia marcescens assessed as intermediate isolate by broth microdilution method; type: functional
# Serratia marcescens [32] = assay: Antimicrobial activity against Serratia marcescens assessed as resistant isolate by broth microdilution method; type: functional
# Serratia marcescens [33] = assay: Antimicrobial activity against Ceftazidime susceptible Serratia marcescens assessed as intermediate isolate by broth microdilution method; type: functional
# Serratia marcescens [34] = assay: Antimicrobial activity against Ceftazidime susceptible Serratia marcescens assessed as resistant isolate by broth microdilution method; type: functional
# Serratia marcescens [35] = assay: Antimicrobial activity against Ceftazidime non-susceptible Serratia marcescens assessed as intermediate isolate by broth microdilution method; type: functional
# Pseudomonas aeruginosa [36] = assay: Antimicrobial activity against Pseudomonas aeruginosa assessed as intermediate isolate by broth microdilution method; type: functional
# Pseudomonas aeruginosa [37] = assay: Antimicrobial activity against Pseudomonas aeruginosa assessed as resistant isolate by broth microdilution method; type: functional
# Pseudomonas aeruginosa [38] = assay: Antimicrobial activity against Ceftazidime susceptible Pseudomonas aeruginosa assessed as susceptible isolate by broth microdilution method; type: functional
# Acinetobacter [39] = assay: Antimicrobial activity against imipenem susceptible Acinetobacter by broth microdilution method; type: functional
# Acinetobacter [40] = assay: Antimicrobial activity against imipenem non-susceptible Acinetobacter by broth microdilution method; type: functional
# Acinetobacter [41] = assay: Antimicrobial activity against Acinetobacter assessed as susceptible isolate by broth microdilution method; type: functional
# Acinetobacter [42] = assay: Antimicrobial activity against imipenem susceptible Acinetobacter assessed as susceptible isolate by broth microdilution method; type: functional
# Acinetobacter [43] = assay: Antimicrobial activity against imipenem susceptible Acinetobacter assessed as intermediate isolate by broth microdilution method; type: functional
# Acinetobacter [44] = assay: Antimicrobial activity against imipenem non-susceptible Acinetobacter assessed as susceptible isolate by broth microdilution method; type: functional
# Acinetobacter [45] = assay: Antimicrobial activity against imipenem non-susceptible Acinetobacter assessed as intermediate isolate by broth microdilution method; type: functional
# Staphylococcus aureus [46] = assay: Antimicrobial activity against methicillin-resistant Staphylococcus aureus by broth microdilution method; type: functional
# Staphylococcus aureus [47] = assay: Antimicrobial activity against methicillin-susceptible Staphylococcus aureus assessed as susceptible isolate by broth microdilution method; type: functional
# Staphylococcus = assay: Antimicrobial activity against methicillin-susceptible coagulase-negative Staphylococcus by broth microdilution method; type: functional
# Streptococcus pneumoniae [48] = assay: Antimicrobial activity against penicillin-susceptible Streptococcus pneumoniae by broth microdilution method; type: functional; settings: Streptococcus pneumoniae
# Pseudomonas aeruginosa [49] = assay: Antimicrobial activity against Pseudomonas aeruginosa isolated from ICU patient assessed as susceptible isolate by broth microdilution method
# Pseudomonas aeruginosa [50] = assay: Antimicrobial activity against Pseudomonas aeruginosa isolated from ICU patient assessed as intermediate isolate by broth microdilution method
# Pseudomonas aeruginosa [51] = assay: Antimicrobial activity against Pseudomonas aeruginosa isolated from non-ICU patient assessed as resistant isolate by broth microdilution method
# Pseudomonas aeruginosa [52] = assay: Antimicrobial activity against Ceftazidime non-susceptible Pseudomonas aeruginosa by broth microdilution method; type: functional
# Pseudomonas aeruginosa [53] = assay: Antimicrobial activity against imipenem non-susceptible Pseudomonas aeruginosa assessed as resistant isolate by broth microdilution method; type: functional
# Acinetobacter [54] = assay: Antimicrobial activity against imipenem susceptible Acinetobacter assessed as resistant isolate by broth microdilution method; type: functional
# [55] = Staphylococcus, read-out: MIC50
compound,measurement,setting,value
C[C@@H](O)[C@H]1C(=O)N2C(C(=O)O)=C(SCCNC=N)C[C@H]12 [IMIPENEM ANHYDROUS],Activity,Streptococcus pneumoniae [1],2.1%
same,MIC50,Enterobacteriaceae [2],1 µg/mL
same,MIC90,Enterobacteriaceae [2],2 µg/mL
same,Activity,Enterobacteriaceae [3],0.4%
same,Activity,Enterobacteriaceae [4],0.1%
same,Activity,Enterobacteriaceae [5],97.3%
same,Activity,Enterobacteriaceae [6],1%
same,MIC50,Escherichia coli [7],0.25 µg/mL
same,MIC90,Escherichia coli [7],0.5 µg/mL
same,MIC50,Escherichia coli [8],0.25 µg/mL
same,MIC90,Escherichia coli [8],0.5 µg/mL
same,MIC50,Escherichia coli [9],0.5 µg/mL
same,MIC90,Escherichia coli [9],1 µg/mL
same,Activity,Escherichia coli [10],100%
same,Activity,Escherichia coli [11],0%
same,Activity,Escherichia coli [12],0%
same,MIC50,Klebsiella pneumoniae [13],0.5 µg/mL
same,MIC90,Klebsiella pneumoniae [13],1 µg/mL
same,Activity,Klebsiella pneumoniae [14],99.7%
same,Activity,Klebsiella pneumoniae [15],99.8%
same,Activity,Klebsiella pneumoniae [16],0.1%
same,Activity,Klebsiella pneumoniae [17],95.5%
same,MIC50,Proteus mirabilis [18],2 µg/mL
same,MIC90,Proteus mirabilis [18],4 µg/mL
same,Activity,Proteus mirabilis [19],2.5%
same,Activity,Proteus mirabilis [20],2.5%
same,Activity,Proteus mirabilis [21],0%
same,MIC50,Enterobacter cloacae [22],1 µg/mL
same,MIC90,Enterobacter cloacae [22],2 µg/mL
same,Activity,Enterobacter cloacae [23],0.4%
same,Activity,Enterobacter cloacae [24],99.5%
same,Activity,Enterobacter cloacae [25],0%
same,MIC50,Citrobacter [26],0.5 µg/mL
same,MIC90,Citrobacter [26],2 µg/mL
same,Activity,Citrobacter [27],99.8%
same,Activity,Citrobacter [28],0%
same,MIC50,Serratia marcescens [29],2 µg/mL
same,MIC90,Serratia marcescens [29],4 µg/mL
same,MIC50,Serratia marcescens [30],2 µg/mL
same,MIC90,Serratia marcescens [30],4 µg/mL
same,Activity,Serratia marcescens [31],0.3%
same,Activity,Serratia marcescens [32],0.8%
same,Activity,Serratia marcescens [33],0.3%
same,Activity,Serratia marcescens [34],0.8%
same,Activity,Serratia marcescens [35],0%
same,Activity,Pseudomonas aeruginosa [36],7.7%
same,Activity,Pseudomonas aeruginosa [37],16%
same,Activity,Pseudomonas aeruginosa [38],79.3%
same,MIC50,Acinetobacter [39],0.5 µg/mL
same,MIC90,Acinetobacter [39],4 µg/mL
same,MIC50,Acinetobacter [40],> 32 µg/mL
same,MIC90,Acinetobacter [40],> 32 µg/mL
same,Activity,Acinetobacter [41],82.4%
same,Activity,Acinetobacter [42],100%
same,Activity,Acinetobacter [43],0%
same,Activity,Acinetobacter [44],0%
same,Activity,Acinetobacter [45],3.9%
same,MIC50,Staphylococcus aureus [46],0.25 µg/mL
same,MIC90,Staphylococcus aureus [46],8 µg/mL
same,Activity,Staphylococcus aureus [47],100%
same,MIC50,Staphylococcus; [55],≤ 0.015 µg/mL
same,MIC90,"Staphylococcus; Staphylococcus, read-out: MIC90",0.03 µg/mL
same,MIC50,Streptococcus pneumoniae [48],≤ 0.015 µg/mL
same,MIC90,Streptococcus pneumoniae [48]; read-out: MIC90,≤ 0.015 µg/mL
same,Activity,Pseudomonas aeruginosa [49],67.6%
same,Activity,Pseudomonas aeruginosa [50],5.8%
same,Activity,Pseudomonas aeruginosa [51],17.2%
C[C@@H](O)[C@H]1C(=O)N2C(C(=O)O)=C(S[C@@H]3CN[C@H](C(=O)N(C)C)C3)[C@H](C)[C@H]12 [MEROPENEM],Activity,Streptococcus pneumoniae [1],2.3%
same,MIC50,Enterobacteriaceae [2],0.12 µg/mL
same,MIC90,Enterobacteriaceae [2],0.5 µg/mL
same,Activity,Enterobacteriaceae [3],0%
same,Activity,Enterobacteriaceae [4],0.1%
same,Activity,Enterobacteriaceae [5],98%
same,Activity,Enterobacteriaceae [6],1.3%
same,MIC50,Escherichia coli [7],0.03 µg/mL
same,MIC90,Escherichia coli [7],0.06 µg/mL
same,MIC50,Escherichia coli [8],0.03 µg/mL
same,MIC90,Escherichia coli [8],0.06 µg/mL
same,MIC50,Escherichia coli [9],0.06 µg/mL
same,MIC90,Escherichia coli [9],0.06 µg/mL
same,Activity,Escherichia coli [10],100%
same,Activity,Escherichia coli [11],0%
same,Activity,Escherichia coli [12],0%
same,MIC50,Klebsiella pneumoniae [13],0.06 µg/mL
same,MIC90,Klebsiella pneumoniae [13],0.06 µg/mL
same,Activity,Klebsiella pneumoniae [14],99.7%
same,Activity,Klebsiella pneumoniae [15],99.8%
same,Activity,Klebsiella pneumoniae [16],0%
same,Activity,Klebsiella pneumoniae [17],95.5%
same,MIC50,Proteus mirabilis [18],0.12 µg/mL
same,MIC90,Proteus mirabilis [18],0.25 µg/mL
same,Activity,Proteus mirabilis [19],0%
same,Activity,Proteus mirabilis [20],0%
same,Activity,Proteus mirabilis [21],0%
same,MIC50,Enterobacter cloacae [22],0.06 µg/mL
same,MIC90,Enterobacter cloacae [22],0.25 µg/mL
same,Activity,Enterobacter cloacae [23],0.4%
same,Activity,Enterobacter cloacae [24],99.5%
same,Activity,Enterobacter cloacae [25],0%
same,MIC50,Citrobacter [26],0.06 µg/mL
same,MIC90,Citrobacter [26],0.06 µg/mL
same,Activity,Citrobacter [27],100%
same,Activity,Citrobacter [28],0%
same,MIC50,Serratia marcescens [29],0.12 µg/mL
same,MIC90,Serratia marcescens [29],0.25 µg/mL
same,MIC50,Serratia marcescens [30],0.25 µg/mL
same,MIC90,Serratia marcescens [30],0.25 µg/mL
same,Activity,Serratia marcescens [31],0%
same,Activity,Serratia marcescens [32],0.8%
same,Activity,Serratia marcescens [33],0%
same,Activity,Serratia marcescens [34],0.8%
same,Activity,Serratia marcescens [35],0%
same,MIC50,Pseudomonas aeruginosa [52],4 µg/mL
same,MIC90,Pseudomonas aeruginosa [52],32 µg/mL
same,Activity,Pseudomonas aeruginosa [36],4.6%
same,Activity,Pseudomonas aeruginosa [37],10.2%
same,Activity,Pseudomonas aeruginosa [38],88.8%
same,Activity,Pseudomonas aeruginosa [53],40.6%
same,MIC50,Acinetobacter [39],1 µg/mL
same,MIC90,Acinetobacter [39],4 µg/mL
same,MIC50,Acinetobacter [40],> 32 µg/mL
same,MIC90,Acinetobacter [40],> 32 µg/mL
same,Activity,Acinetobacter [41],80.6%
same,Activity,Acinetobacter [42],97.9%
same,Activity,Acinetobacter [43],1.7%
same,Activity,Acinetobacter [54],0.4%
same,Activity,Acinetobacter [44],0%
same,Activity,Acinetobacter [45],0%
same,Activity,Staphylococcus aureus [47],100%
same,MIC50,Staphylococcus,0.12 µg/mL
same,MIC50,Staphylococcus; [55],0.06 µg/mL
same,MIC50,Streptococcus pneumoniae [48],≤ 0.015 µg/mL
same,Activity,Pseudomonas aeruginosa [49],74.1%
same,Activity,Pseudomonas aeruginosa [50],7.9%
same,Activity,Pseudomonas aeruginosa [51],12.4%

# From ChEMBL document CHEMBL1275550, “In vitro activity of doripenem, a carbapenem for the treatment of challenging infections caused by gram-negative bacteria, against recent clinical isolates from the United States” (2008)
